Assay results as given in the supplement of paper PMC13380429.

Legend:
Conditions in all cases: 72 h
Caco-2 [1] = assay: cell viability relative to DMSO; higher = less toxic
Calu-3 [2] = assay: as above
HepG2 [3] = assay: as above
U2OS [4] = assay: as above
Vero E6 [5] = assay: as above
Calu-3 [6] = assay: relative viability EC50 (midpoint between 100% and the lowest measured viability); higher = less toxic
HepG2 [7] = assay: as above
U2OS [8] = assay: as above
Vero E6 [9] = assay: as above
Caco-2 [10] = assay: drug sensitivity score (DSS) for viability; higher = more toxic; extreme values may be limits of the assay
Calu-3 [11] = assay: as above
HepG2 [12] = assay: as above
U2OS [13] = assay: as above
Vero E6 [14] = assay: as above

SMILES	cell viability (Caco-2 [1]; 1 nM) [%]	cell viability (Caco-2 [1]; 10 nM) [%]	cell viability (Caco-2 [1]; 100 nM) [%]	cell viability (Caco-2 [1]; 1000 nM) [%]	cell viability (Caco-2 [1]; 10000 nM) [%]	cell viability (Calu-3 [2]; 1 nM) [%]	cell viability (Calu-3 [2]; 10 nM) [%]	cell viability (Calu-3 [2]; 100 nM) [%]	cell viability (Calu-3 [2]; 1000 nM) [%]	cell viability (Calu-3 [2]; 10000 nM) [%]	cell viability (HepG2 [3]; 1 nM) [%]	cell viability (HepG2 [3]; 10 nM) [%]	cell viability (HepG2 [3]; 100 nM) [%]	cell viability (HepG2 [3]; 1000 nM) [%]	cell viability (HepG2 [3]; 10000 nM) [%]	cell viability (U2OS [4]; 1 nM) [%]	cell viability (U2OS [4]; 10 nM) [%]	cell viability (U2OS [4]; 100 nM) [%]	cell viability (U2OS [4]; 1000 nM) [%]	cell viability (U2OS [4]; 10000 nM) [%]	cell viability (Vero E6 [5]; 1 nM) [%]	cell viability (Vero E6 [5]; 10 nM) [%]	cell viability (Vero E6 [5]; 100 nM) [%]	cell viability (Vero E6 [5]; 1000 nM) [%]	cell viability (Vero E6 [5]; 10000 nM) [%]	relative viability EC50 (Calu-3 [6]) [µM]	relative viability EC50 (HepG2 [7]) [µM]	relative viability EC50 (U2OS [8]) [µM]	relative viability EC50 (Vero E6 [9]) [µM]	drug sensitivity score (Caco-2 [10])	drug sensitivity score (Calu-3 [11])	drug sensitivity score (HepG2 [12])	drug sensitivity score (U2OS [13])	drug sensitivity score (Vero E6 [14])
CCOC(=O)Nc1cc(-c2ccc(C)c(NS(C)(=O)=O)c2)nn2c(C)nnc12 [bromosporine]	95.5	101	104	81.3	55.8	96.8	88	80.4	76.3	37.8	101	98.9	102	60.8	19.5	96.2	99.2	91.5	79.2	18.5	95.7	101	94.7	55.5	6.3	0.624	1.02	1.57	1.05	4.8	7.9	9.4	7.6	10.4
CCCCN(CCCC)CCCOC(=O)c1ccc(N)cc1 [butacaine]	92.7	98.5	91.3	128	65.7	95.9	95.3	106	86.8	94.9	108	93	102	85.2	95.7	92.5	99.3	95.1	102	101	102	90.8	99.1	92.9	92.7	> 10	> 10	> 10	> 10	0.9	0	0	0	0
CN1CCN(C(c2ccccc2)c2ccc(Cl)cc2)CC1 (configuration not stated) [chlorcyclizine]	107	104	79.4	105	71.7	102	103	96.4	98.3	88.1	97.6	90.4	95.8	91.7	87.9	93.8	103	99	106	88.8	105	97.3	103	101	92.6	> 10	> 10	> 10	> 10	0.9	0.1	0	0	0
